Test results reported in PubChem BioAssay (NCI).
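Values below derive from 48-hour exposures of cells grown in 96-well plates, with endpoints linearly interpolated between the two concentrations bracketing the appropriate inhibition level. TGI: total growth inhibition.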

How the values were obtained:
Assay in all cases: NCI tumour cell line growth inhibition, 48 h
TK-10 renal = test system: TK-10 renal
T-47D breast = test system: T-47D breast
NCI-H522 lung = test system: NCI-H522 lung
SK-MEL-2 melanoma = test system: SK-MEL-2 melanoma
PC-3 prostate = test system: PC-3 prostate
HOP-62 NSCLC = test system: HOP-62 NSCLC
HOP-92 NSCLC = test system: HOP-92 NSCLC
786-0 renal = test system: 786-0 renal
UACC-62 melanoma = test system: UACC-62 melanoma
NCI-H460 lung = test system: NCI-H460 lung
SK-MEL-28 melanoma = test system: SK-MEL-28 melanoma
SK-MEL-5 melanoma = test system: SK-MEL-5 melanoma
OVCAR-3 ovarian = test system: OVCAR-3 ovarian
M14 melanoma = test system: M14 melanoma
EKVX NSCLC = test system: EKVX NSCLC
RPMI-8226 leukemia = test system: RPMI-8226 leukemia
HCC-2998 colon = test system: HCC-2998 colon
K-562 leukemia = test system: K-562 leukemia
MALME-3M melanoma = test system: MALME-3M melanoma
SNB-19 CNS = test system: SNB-19 CNS
UACC-257 melanoma = test system: UACC-257 melanoma
COLO 205 colon = test system: COLO 205 colon
MCF7 breast = test system: MCF7 breast
U251 CNS = test system: U251 CNS
A549 NSCLC = test system: A549 NSCLC
NCI-H226 lung = test system: NCI-H226 lung
SF-539 CNS = test system: SF-539 CNS
SF-295 CNS = test system: SF-295 CNS
SR leukemia = test system: SR leukemia
MDA-MB-231 breast = test system: MDA-MB-231 breast
HCT-116 colon = test system: HCT-116 colon
NCI-H23 lung = test system: NCI-H23 lung
KM12 colon = test system: KM12 colon
CCRF-CEM leukemia = test system: CCRF-CEM leukemia
OVCAR-4 ovarian = test system: OVCAR-4 ovarian
SW-620 colon = test system: SW-620 colon
BT-549 breast = test system: BT-549 breast
HCT-15 colon = test system: HCT-15 colon
UO-31 renal = test system: UO-31 renal
SN12C renal = test system: SN12C renal
OVCAR-8 ovarian = test system: OVCAR-8 ovarian
NCI/ADR-RES ovarian = test system: NCI/ADR-RES ovarian
ACHN renal = test system: ACHN renal
A498 renal = test system: A498 renal
MDA-MB-435 = test system: MDA-MB-435
HT29 colon = test system: HT29 colon
MDA-N = test system: MDA-N
CAKI-1 renal = test system: CAKI-1 renal
MOLT-4 leukemia = test system: MOLT-4 leukemia
RXF 393 renal = test system: RXF 393 renal
DU-145 prostate = test system: DU-145 prostate
IGROV1 ovarian = test system: IGROV1 ovarian
LOX IMVI melanoma = test system: LOX IMVI melanoma
OVCAR-5 ovarian = test system: OVCAR-5 ovarian
SK-OV-3 ovarian = test system: SK-OV-3 ovarian
SF-268 CNS = test system: SF-268 CNS
SNB-75 CNS = test system: SNB-75 CNS
HS 578T breast = test system: HS 578T breast
HL-60(TB) leukemia = test system: HL-60(TB) leukemia

Measured: TGI

COc1ccc(/C=C2\CCCCCC2=O)cc1
not listed: SNB-75 CNS | HS 578T breast | HL-60(TB) leukemia
> 100 µM: all other assays above

Cn1c(NS(=O)(=O)c2ccccc2)nc2ccccc21
not listed: SK-MEL-2 melanoma | PC-3 prostate | HOP-62 NSCLC | OVCAR-3 ovarian | LOX IMVI melanoma
> 100 µM: all other assays above
